Article PMC4033315 (Journal of medicinal chemistry, 2013)

Experiments:
α2β2 nAChR = α2β2 nAChR (Rattus norvegicus, UniProt P12389+P12390); assay type: cell-based
α9α10 nAChR [1] = target: α9α10 nAChR (Rattus norvegicus, UniProt P43144+Q9JLB5); assay type: cell-based
α3β2 nAChR [2] = target: α3β2 nAChR (Rattus norvegicus, UniProt P04757+P12390); assay type: cell-based
[3] = target: α6/α3β2β3 nAChR (α6/α3 chimera) (Rattus norvegicus, UniProt P04757+P12390+P12391+P43143); assay type: cell-based
α4β4 nAChR = α4β4 nAChR (Rattus norvegicus, UniProt P09483+P12392); assay type: cell-based
α4β4 nAChR, sequence (P09483 31-630 limits assumed): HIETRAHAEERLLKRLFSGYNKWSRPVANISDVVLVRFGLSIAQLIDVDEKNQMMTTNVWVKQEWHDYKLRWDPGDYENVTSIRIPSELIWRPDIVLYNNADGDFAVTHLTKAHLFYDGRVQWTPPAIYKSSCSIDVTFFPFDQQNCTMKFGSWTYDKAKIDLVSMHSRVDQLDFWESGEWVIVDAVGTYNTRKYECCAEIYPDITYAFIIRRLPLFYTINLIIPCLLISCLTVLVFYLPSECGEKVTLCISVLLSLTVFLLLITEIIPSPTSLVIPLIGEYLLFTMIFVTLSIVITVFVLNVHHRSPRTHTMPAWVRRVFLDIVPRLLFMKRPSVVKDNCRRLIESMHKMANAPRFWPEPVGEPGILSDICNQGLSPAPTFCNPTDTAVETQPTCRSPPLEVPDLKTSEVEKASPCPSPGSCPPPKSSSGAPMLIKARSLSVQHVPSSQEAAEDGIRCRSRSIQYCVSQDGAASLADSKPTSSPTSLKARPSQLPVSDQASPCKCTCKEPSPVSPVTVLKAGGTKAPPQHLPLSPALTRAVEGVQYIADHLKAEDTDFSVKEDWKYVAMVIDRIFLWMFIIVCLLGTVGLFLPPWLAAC
α4β4 nAChR, sequence (P12392 22-495 limits assumed): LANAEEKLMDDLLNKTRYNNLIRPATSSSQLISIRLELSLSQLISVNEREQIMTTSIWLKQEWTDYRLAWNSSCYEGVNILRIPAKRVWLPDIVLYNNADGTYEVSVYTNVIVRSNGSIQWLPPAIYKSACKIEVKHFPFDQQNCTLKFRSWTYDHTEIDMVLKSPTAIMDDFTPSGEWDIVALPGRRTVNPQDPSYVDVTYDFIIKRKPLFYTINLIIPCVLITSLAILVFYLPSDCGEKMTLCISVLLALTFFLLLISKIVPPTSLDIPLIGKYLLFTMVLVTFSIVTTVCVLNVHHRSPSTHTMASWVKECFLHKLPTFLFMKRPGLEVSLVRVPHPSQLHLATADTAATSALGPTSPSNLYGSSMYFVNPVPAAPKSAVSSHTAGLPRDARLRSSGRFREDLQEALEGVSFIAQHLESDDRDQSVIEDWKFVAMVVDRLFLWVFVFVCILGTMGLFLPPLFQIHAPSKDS

α7 nAChR = α7 nAChR (Rattus norvegicus, UniProt Q05941); assay type: cell-based
α7 nAChR, sequence (Q05941 23-502 limits assumed): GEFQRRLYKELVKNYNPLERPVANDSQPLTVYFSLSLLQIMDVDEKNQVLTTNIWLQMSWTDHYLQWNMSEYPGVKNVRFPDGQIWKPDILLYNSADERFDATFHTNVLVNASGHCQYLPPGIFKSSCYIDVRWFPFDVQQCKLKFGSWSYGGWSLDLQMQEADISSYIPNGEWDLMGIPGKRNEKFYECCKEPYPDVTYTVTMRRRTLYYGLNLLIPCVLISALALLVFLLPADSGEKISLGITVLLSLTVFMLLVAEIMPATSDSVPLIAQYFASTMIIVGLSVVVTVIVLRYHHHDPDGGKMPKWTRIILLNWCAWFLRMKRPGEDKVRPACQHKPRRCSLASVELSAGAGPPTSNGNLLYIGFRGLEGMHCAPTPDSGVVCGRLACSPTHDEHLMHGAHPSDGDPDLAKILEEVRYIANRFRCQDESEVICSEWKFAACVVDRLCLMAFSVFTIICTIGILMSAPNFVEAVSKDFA

α4β2 nAChR = α4β2 nAChR (Rattus norvegicus, UniProt P09483+P12390); assay type: cell-based
α4β2 nAChR, sequence (P09483 31-630 limits assumed): as the sequence (P09483 31-630 limits assumed) above
α4β2 nAChR, sequence (P12390 25-500 limits assumed): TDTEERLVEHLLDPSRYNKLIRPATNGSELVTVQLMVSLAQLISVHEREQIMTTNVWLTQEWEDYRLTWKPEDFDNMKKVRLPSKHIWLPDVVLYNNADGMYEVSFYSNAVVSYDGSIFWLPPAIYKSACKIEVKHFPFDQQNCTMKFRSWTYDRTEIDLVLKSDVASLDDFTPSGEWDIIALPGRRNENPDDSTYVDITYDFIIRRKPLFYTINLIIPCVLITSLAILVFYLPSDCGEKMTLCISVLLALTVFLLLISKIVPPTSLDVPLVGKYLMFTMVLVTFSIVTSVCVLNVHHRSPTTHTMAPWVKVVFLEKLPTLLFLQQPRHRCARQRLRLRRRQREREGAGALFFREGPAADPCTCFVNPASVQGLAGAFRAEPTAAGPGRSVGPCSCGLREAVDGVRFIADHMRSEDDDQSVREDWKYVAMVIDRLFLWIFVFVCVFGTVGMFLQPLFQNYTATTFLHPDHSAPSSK

α6/α3β4 nAChR = details: cited from earlier work
α9α10 nAChR [4] = details: cited from earlier work
α3β2 nAChR [5] = details: cited from earlier work
α6/α3β2β3 nAChR = details: cited from earlier work

α3β2 nAChR (Rattus norvegicus, UniProt P04757+P12390), sequence (P04757 26-499 limits assumed): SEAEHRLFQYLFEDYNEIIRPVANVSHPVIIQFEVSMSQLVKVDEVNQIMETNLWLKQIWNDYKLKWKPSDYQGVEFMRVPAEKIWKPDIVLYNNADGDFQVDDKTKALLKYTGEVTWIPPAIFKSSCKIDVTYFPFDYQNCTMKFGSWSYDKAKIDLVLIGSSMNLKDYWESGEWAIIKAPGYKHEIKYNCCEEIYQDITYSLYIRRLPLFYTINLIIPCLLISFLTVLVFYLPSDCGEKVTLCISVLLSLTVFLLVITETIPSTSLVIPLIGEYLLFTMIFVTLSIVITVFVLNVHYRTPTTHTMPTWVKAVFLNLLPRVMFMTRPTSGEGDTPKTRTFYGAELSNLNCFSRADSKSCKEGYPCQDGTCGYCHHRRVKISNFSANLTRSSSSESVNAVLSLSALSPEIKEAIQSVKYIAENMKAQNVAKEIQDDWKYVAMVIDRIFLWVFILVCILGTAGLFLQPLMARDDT
α3β2 nAChR (Rattus norvegicus, UniProt P04757+P12390), sequence (P12390 25-500 limits assumed): as the sequence (P12390 25-500 limits assumed) above
α9α10 nAChR (Rattus norvegicus, UniProt P43144+Q9JLB5), sequence (P43144 26-479 limits assumed): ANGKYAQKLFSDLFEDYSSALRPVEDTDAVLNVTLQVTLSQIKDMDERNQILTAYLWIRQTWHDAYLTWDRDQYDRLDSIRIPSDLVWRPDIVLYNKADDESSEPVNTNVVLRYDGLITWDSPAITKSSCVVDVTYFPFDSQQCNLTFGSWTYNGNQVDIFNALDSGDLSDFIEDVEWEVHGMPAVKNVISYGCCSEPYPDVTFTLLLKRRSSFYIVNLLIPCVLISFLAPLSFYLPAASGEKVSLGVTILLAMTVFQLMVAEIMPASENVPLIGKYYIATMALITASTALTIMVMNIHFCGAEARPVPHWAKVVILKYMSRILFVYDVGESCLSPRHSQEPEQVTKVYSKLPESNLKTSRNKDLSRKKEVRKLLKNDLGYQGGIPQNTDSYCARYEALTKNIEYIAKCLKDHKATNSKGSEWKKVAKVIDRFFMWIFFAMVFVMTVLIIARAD
α9α10 nAChR (Rattus norvegicus, UniProt P43144+Q9JLB5), sequence (Q9JLB5 25-447 limits assumed): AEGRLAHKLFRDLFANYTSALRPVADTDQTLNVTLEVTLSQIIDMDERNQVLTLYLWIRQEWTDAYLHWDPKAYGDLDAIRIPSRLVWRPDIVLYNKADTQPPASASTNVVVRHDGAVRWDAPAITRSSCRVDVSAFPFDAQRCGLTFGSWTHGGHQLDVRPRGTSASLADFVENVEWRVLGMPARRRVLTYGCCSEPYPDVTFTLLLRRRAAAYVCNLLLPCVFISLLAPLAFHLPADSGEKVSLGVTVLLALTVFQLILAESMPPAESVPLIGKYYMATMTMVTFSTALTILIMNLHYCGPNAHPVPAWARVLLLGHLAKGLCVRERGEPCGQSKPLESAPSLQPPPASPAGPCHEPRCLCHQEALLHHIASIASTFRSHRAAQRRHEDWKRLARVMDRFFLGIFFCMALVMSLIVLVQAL
α2β2 nAChR, sequence (P12389 28-511 limits assumed): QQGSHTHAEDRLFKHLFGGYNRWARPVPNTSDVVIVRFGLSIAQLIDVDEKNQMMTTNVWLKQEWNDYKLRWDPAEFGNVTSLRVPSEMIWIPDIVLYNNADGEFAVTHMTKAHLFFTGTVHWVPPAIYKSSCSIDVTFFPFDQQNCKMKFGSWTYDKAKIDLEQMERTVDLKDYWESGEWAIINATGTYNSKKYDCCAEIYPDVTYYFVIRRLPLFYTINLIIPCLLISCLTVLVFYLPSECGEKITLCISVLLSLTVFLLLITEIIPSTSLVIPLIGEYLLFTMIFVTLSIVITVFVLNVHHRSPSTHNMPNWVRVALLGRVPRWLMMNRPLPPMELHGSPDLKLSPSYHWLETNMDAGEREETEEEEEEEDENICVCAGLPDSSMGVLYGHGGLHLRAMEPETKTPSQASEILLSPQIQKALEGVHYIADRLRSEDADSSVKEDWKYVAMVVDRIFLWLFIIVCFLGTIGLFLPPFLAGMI
α2β2 nAChR, sequence (P12390 25-500 limits assumed): as the sequence (P12390 25-500 limits assumed) above

Compound | block at 10^−5 M (α2β2 nAChR) | block at 10^−5 M (α9α10 nAChR [1]) | block of ACh-evoked currents (α9α10 nAChR [1]) | block at 10^−5 M (α3β2 nAChR [2]) | block of ACh-evoked currents (α3β2 nAChR [2]) | block at 10^−5 M [3] | block at 10^−5 M (α4β4 nAChR) | block of ACh-evoked currents (α4β4 nAChR) | block at 10^−5 M (α7 nAChR) | block of ACh-evoked currents (α7 nAChR) | block at 10^−5 M (α4β2 nAChR) | IC50 (α6/α3β4 nAChR) | IC50 (α9α10 nAChR [4]) | IC50 (α3β2 nAChR [5]) | IC50 (α6/α3β2β3 nAChR)
CC[C@H](C)[C@@H]1NC(=O)[C@@H]2CCCN2C(=O)[C@H](CO)NC(=O)[C@H](CCSC)NC(=O)[C@H](C)NC(=O)[C@H](CO)NC(=O)[C@@H]2CSSC[C@H](NC(=O)CN)C(=O)N[C@@H](CSSC[C@@H](C(N)=O)NC1=O)C(=O)N[C@@H](CO)C(=O)N[C@@H](Cc1c[nH]cn1)C(=O)N1CCC[C@H]1C(=O)N[C@@H](C(C)C)C(=O)N2 [TxID] | c less than 50% block at 10^−5 M. All receptors are rat except for α1β1δε, which is mouse. | c less than 50% block at 10^−5 M. All receptors are rat except for α1β1δε, which is mouse. | no inhibition | c less than 50% block at 10^−5 M. All receptors are rat except for α1β1δε, which is mouse. | no inhibition | c less than 50% block at 10^−5 M. All receptors are rat except for α1β1δε, which is mouse. | c less than 50% block at 10^−5 M. All receptors are rat except for α1β1δε, which is mouse. | no inhibition | c less than 50% block at 10^−5 M. All receptors are rat except for α1β1δε, which is mouse. | no inhibition | c less than 50% block at 10^−5 M. All receptors are rat except for α1β1δε, which is mouse. | – | – | – | –
Vc1.1 | – | – | – | – | – | – | – | – | – | – | – | 980 nM | 19 nM | 7300 nM | 140 nM
